Experimental data from patent publication US9790225B2, “4-amino-3-phenylamino-6-phenylpyrazolo[3,4-d]pyrimidine derivatives, their manufacture and their use as antiviral active substances” (Scandion Oncology A/S, priority 2011, dated 2017).
pIC50: −log10 of the molar value. Like-named read-outs stand apart in the source and are kept apart here. Marks after values point to notes of the source that are not given here.

What was measured:
[1] = test system: human rhinovirus serotypes (HRV); assay: zpE (cytopathic effect) inhibitory test with HRV serotypes; format: cell-based; details: for pIC50: Human rhinovirus sp.; for Number of sensitive HRV: of 50 examined serotypes
Excerpt: (§1) Objective: To determine the antiviral effective spectrum of CRCV-340 in respect of 50 different human rhinovirus serotypes and CVB3 patient isolates.
(§2) Tests: The 50 HRV serotypes and 20 clinical CVB3 isolates were reproduced in HeLa, HeLa Wis and/or LF cells, their titre determined and the serotype verified using sequencing. Accordingly zpE (zytopathic effect) inhibitory tests with the HRV or plaque-reductions tests with the CVB3 isolates were established. In the corresponding antiviral tests dose effect investigations with Ref-3 and CRCV-340 were carried out. Tables 5 and 6 give an overview of the mean 50% inhibitory concentrations.

[2] = Pharmacokinetics in mice, single per os application, HPLC of plasma; format: in vivo; details: for AUC(0-t) / AUC(0-inf) / Cmax / MRT / half-life / Tmax: mouse, po; for AUC(0-t): read-out: AUC0-t (area under curve); for AUC(0-inf): read-out: AUC0-∞ (area under curve); for Cmax: read-out: Cmax (maximum concentration in the blood); for MRT: read-out: MRT (mean residence time); for half-life: read-out: T1/2 (half life) (converted); for Tmax: read-out: Tmax (time to reach the maximum concentration in the blood)
Method: Tests: Substance and reference substance were applied respectively once in a concentration of 100 mg/kg KG, in 0.5 ml of a 10% Cremophor solution per os to the mice, After 0.5, 1, 2, 3, 4, 5, 6 and 7 hrs serum was taken and by means of HPLC analysis the concentrations of CRCV-340, Ref-2 and Ref-3 determined in the plasma of the mice.
Using the substance concentrations in the blood plasma determined by HPLC the pharmacokinetic parameters of the substances were calculated using the computer program ESTRIP (Table 3).

clinical CVB3 isolates = assay: Plaque-reduction test with clinical CVB3 isolates; format: cell-based; details: for pIC50: Enterovirus B, CVB3; for Number of sensitive CVB3: of 20 clinical isolates, CRCV-340 maximum tested concentration 13.5 μM
Excerpt: as §1, §2

plasma protein = assay: Plasma protein binding and release in vitro (ADMET); format: in vitro ADME; details: for Binding to plasma protein / Release of plasma protein: in vitro
Excerpt: (§3) Objective: To investigate the Absorption, Distribution, Metabolism, Excretion and Toxicity (abbreviated as: ADMET) of OBR 5-340 in vitro, as well as in vitro tests on the plasma protein binding and the stability in the plasma and in liver microsomes. Tests: The In vitro tests performed with CRCV-340 as well as the data obtained are summarised in Table 2 in comparison with Ref. 2.

[3] = Stability in liver microsomes in vitro (ADMET); format: in vitro ADME; details: for Stability in liver microsomes: in vitro
Excerpt: as §3

[4] = Acute toxicity in mice after single peroral administration; format: in vivo; details: for LD50 at 72 h: mouse, in vivo; for LD50 at 72 h / LD50: single peroral administration
Method: Tests: The acute toxicity of the substance CRCV-340 was tested in mice 19.5-20.5 g in weight, which was administered per os 40, 60, 80 or 120 mg substance/mouse (per 5 mice per substance and concentration). This corresponds to a dose of approx. 2 g, 3 g, 4 g or 6 g per kilogramme body weight. The toxic effects observed in the result correlated to the substance dose administered.

[5] = Plasma stability in vitro (ADMET); format: in vitro ADME
Excerpt: as §3

[6] = in vivo; cited from earlier work
CVB3 31-1-93 [7] = assay: Lethal mouse model of CVB3-induced myocarditis; format: in vivo; details: CVB3 31-1-93-infected BALB/c mice, 100 mg/kg twice a day over 7 days
Method: Investigations: The effect of the development candidate CRCV-340 was examined following testing of the infection dose in the model of the CVB 3-induced myocarditis in 6-7 weeks old male BALB/c mice. In addition CVB3 31-1-93 or CVB3 H3-infected animals received twice a day 100 mg/kg of the substance in 20% PEG-400 in 1% CMC in water (placebo) administered over 7 days. Changes in body weight, general condition and the lethality defined through the surrogate marker 25% loss of body weight served as parameters to evaluate the therapeutic effect. Pseudo-infected, placebo-treated or CRCV-340-treated animals represented the negative control and infected, placebo- or pleconaril-treated animals the positive control over the course of the infection.

CVB3 31-1-93 [8] = assay: Mouse model of CVB3-induced chronic myocarditis; format: in vivo; details: CVB3 31-1-93-infected NMRI mice, 100 mg/kg once or twice a day over 7 days
Method: Investigations: The effect of CRCV-340 was investigated in the model of CVB 3-induced myocarditis in 8-week old male NMRI mice. In addition CVB3 31-1-93 or CVB3 H3-infected animals received once or twice a day 100 mg/kg of the substance in 50% or 20% PEG-400 in 1% CMC in water (placebo) administered over 7 days. Parameters to evaluate the therapeutic effect included changes in body weight, general condition, virus titre in heart and pancreas tissue as well as histopathological changes in the heart and pancreas. Pseudo-infected, placebo-treated or CRCV-340-treated animals served as a negative control and infected, placebo- or pleconaril-treated animals as a positive control over the course of the infection.

[9] = In vivo conversion of prodrug to 1H pyrazol compound (serum); details: in the serum mainly only the final active ingredient (CRCV-340) can be proven
Excerpt: Also covered are pro pharmacons (prodrugs) of the compounds, especially those which are characterized by a substituent on the pyrazol heteroatom in position 1. It has been shown that such types of compounds are converted in vivo to the 1H pyrazol compound. As an example, compounds have been mentioned in respect of which the pyrazol heteroatom in position 1 is substituted by an imino(phenyl)methyl substituent, such as, for example, 1-[Imino(phenyl)methyl]-4-amino-3-(4-trifluormethyl-phenyl)amino-6-phenylpyrazolo[3,4-d]pyrimidine, also designated by the IUPAC name 1-benzylcarboximidoyl-6-phenyl-3-N-[4-(trifluormethyl)phenyl]-1H-pyrazolo[3,4-d]-pyrimidine-3,4-diamine. Here this relates to a by-product of the manufacture of the compound described above, CRCV-340, resulting from the reaction of the compound CRCV-340 with an excess of benzamidine in the reaction mixture and having the following formula: […]
Also included are the salts, solvates or solvates of the salts produced by the above compounds. Within the scope of this invention the preferred salts are physiologically harmless salts of the compounds relating to the invention. […]

[10] = Subacute toxicity in mice over 28 days, intragastric; format: in vivo; details: mice, 12.5, 50 or 200 mg/kg once a day over 28 days
Method: Objective: To determine the subacute toxicity in mice in order to reveal possible side effects e.g. on general condition, weight, internal organs and metabolism, which could arise with subacute administration of CRCV-340 over 28 days.
Tests: Thus male and female mice weighing approx. 20 g received 12.5, 50 or 200 mg/kg of the substance CRCV-340 in a Cremophor formulation or the control group received Cremophor once a day over 28 days intragastrically administered via a tube. During the total period of the experiment the condition of the coat and the mucous membranes, the excreta and the general condition were assessed. The recording of the weight took place on days 7, 14, 21 and 28. Approx. 24 hrs. after the last substance dose the sense of direction of the animals was examined. The following biochemical parameters in the serum were analysed: protein content, urea, creatinine, the serum activity of aspartate aminotransferase, alanine aminotransferase and alkaline phosphatase. The haemoglobin concentration, hematocrit, the number of red and white blood cells as well as the platelets was determined in the blood smear. At the end of the experiment the mice were killed under anaesthetic and dissected, the condition of the internal organs were assessed macroscopically, the organ weight determined and samples for subsequent histological tests put into formalin.

[11] = in vivo; cited from earlier work; remark: listed apart in the source
[12] = read-out: IC50 Pleconaril-resistant HRV (n = 5), mean
[13] = read-out: IC50 Pleconaril-sensitive HRV (n = 45), mean
[14] = read-out: IC50 all HRV (n = 50), mean
[15] = plasma, mice, single intragastric 100 mg/kg
[16] = mean over 19 pleconaril-sensitive isolates, read-out: IC50 Pleconaril-sensitive CVB3 (n = 19), mean
[17] = mean over all 20 clinical isolates, read-out: IC50 all CVB3 (n = 20), mean
[18] = the one pleconaril-resistant isolate, read-out: IC50 Pleconaril-resistant CVB3 (n = 1)
[19] = single peroral dose 40 mg/mouse
[20] = single peroral dose 60 mg/mouse
[21] = single peroral dose 80 mg/mouse
[22] = single peroral dose 120 mg/mouse
[23] = mice, single intragastric 100 mg/kg

Nc1nc(-c2ccccc2)nc2[nH]nc(Nc3ccc(Cl)cc3)c12 [Ref-3, 4-amino-3-(4-chlorphenyl)amino-6-phenylpyrazolo[3,4-d]pyrimidine]
pIC50 [1, 12]: 7.15 | pIC50 [1, 13]: 4.73 | pIC50 [1, 14]: 4.79 | Number of sensitive HRV [1]: 23 | AUC(0-t) [2, 15]: 1090 ng·h/mL | AUC(0-inf) [2, 15]: 1090 ng·h/mL | Cmax [2, 15]: 424 ng/mL | MRT [2, 15]: 2.44 h | half-life [2, 15]: 1.47 h | Tmax [2, 15]: 0.5 h | pIC50 (clinical CVB3 isolates; [16]): 6.15 | pIC50 (clinical CVB3 isolates; [17]): 6.17 | pIC50 (clinical CVB3 isolates; [18]): 6.89 | Number of sensitive CVB3 (clinical CVB3 isolates): 20

Nc1nc(-c2ccccc2)nc2[nH]nc(Nc3ccccc3)c12 [Ref-2, 4-amino-3-(phenylamino)-6-phenylpyrazolo[3,4-d]pyrimidine]
Binding to plasma protein (plasma protein): 99.5% | Release of plasma protein (plasma protein): 61.0% | Stability in liver microsomes [3]: 32.0% | LD50 at 72 h [4]: 3930 mg/kg | LD50 [4]: 78.6 mg/mouse | Dead/Surviving 72 hrs after administration [4, 19]: 0/5 | Dead/Surviving 72 hrs after administration [4, 20]: 1/5 | Dead/Surviving 72 hrs after administration [4, 21]: 3/5 | Dead/Surviving 72 hrs after administration [4, 22]: 4/5 | Plasma stability [5]: 117.0% | AUC(0-t) [2, 15]: 2350 ng·h/mL | AUC(0-inf) [2, 15]: 2730 ng·h/mL | Cmax [2, 15]: 1300 ng/mL | MRT [2, 15]: 2.14 h | half-life [2, 15]: 2.96 h | Tmax [2, 15]: 1 h

Nc1nc(-c2cc(C(F)(F)F)cc(C(F)(F)F)c2)nc2[nH]nc(Nc3ccc(Cl)cc3)c12 [MS-115]
melting point: 272 to 274 °C

Nc1nc(-c2ccccc2)nc2[nH]nc(Nc3ccc(F)cc3)c12 [Ref-5, 4-amino-3-[(4-fluorophenyl)amino]-6-phenylpyrazolo[3,4-d]pyrimidine]
melting point: 262 to 263 °C

Nc1nc(-c2cccc(C(F)(F)F)c2)nc2[nH]nc(Nc3ccccc3)c12 [MS-117]
melting point: 230 to 232 °C

Nc1nc(-c2ccccc2C(F)(F)F)nc2[nH]nc(Nc3ccc(Cl)cc3)c12 [MS-116]
melting point: 271 to 273 °C

Cc1cc(CCCOc2c(C)cc(-c3noc(C(F)(F)F)n3)cc2C)on1 [pleconaril]
Bioavailability [6]: very good oral bioavailability | Therapeutic effect (body weight, general condition, lethality) (CVB3 31-1-93 [7]): In contrast to the placebo and pleconaril CRCV-340 was effective | Therapeutic effect (body weight, general condition, virus titre in heart and pancreas, histopathology) (CVB3 31-1-93 [8]): in contrast to the placebo and pleconaril CRCV-340 was effective

N=C(c1ccccc1)n1nc(Nc2ccc(C(F)(F)F)cc2)c2c(N)nc(-c3ccccc3)nc21 [CRCV-340 prodrug, 1-[Imino(phenyl)methyl]-4-amino-3-(4-trifluormethyl-phenyl)amino-6-phenylpyrazolo[3,4-d]pyrimidine]
Conversion in vivo into the target compound [9]: very easily converted into the target compound

Nc1nc(-c2ccccc2)nc2[nH]nc(Nc3ccc(C(F)(F)F)cc3)c12 [CRCV-340, 4-amino-3-(4-trifluormethyl-phenyl)amino-6-phenylpyrazolo[3,4-d]pyrimidine]
Release of plasma protein, comparison in words (plasma protein; in comparison with Ref-2): increased release of plasma protein | Binding to plasma protein (plasma protein): 96.7% | Release of plasma protein (plasma protein): 122.3% | Stability in liver microsomes, comparison in words ([3]; compared with Ref-2 / state-of-the-art substances): better stability in liver microsomes | Stability in liver microsomes [3]: 112.0% | LD50 at 72 h [4]: 3120 mg/kg | LD50 [4]: 62.4 mg/mouse | Dead/Surviving 72 hrs after administration [4, 19]: 1/5 | Dead/Surviving 72 hrs after administration [4, 20]: 1/5 | Dead/Surviving 72 hrs after administration [4, 21]: 3/5 | Dead/Surviving 72 hrs after administration [4, 22]: 5/5 | Effective spectrum in respect of HRV in comparison to Ref-3 ([1]; 50 HRV serotypes): significantly broader | pIC50 [1, 12]: 4.65 | pIC50 [1, 13]: 4.58 | pIC50 [1, 14]: 4.59 | Number of sensitive HRV [1]: 49 | Therapeutic effect (body weight, general condition, lethality) (CVB3 31-1-93 [7]): effective | Plasma stability [5]: 100.0% | Bioavailability in mice, comparison in words ([2]; compared with Ref-2 and Ref-3 / state-of-the-art substances): significantly better bioavailability | Cmax (maximum concentration in the blood) [2, 23]: 1254.4 ng/mL | MRT (mean residence time) [2, 23]: 3.54 h | half-life ([2]; in vivo, mice, single intragastric 100 mg/kg): 3.54 h | AUC(0-inf) [2, 15]: 9600 ng·h/mL | Tmax [2, 15]: 3 h | pIC50 (clinical CVB3 isolates; [16]): 5.29 | pIC50 (clinical CVB3 isolates; [17]): 5.30 | pIC50 (clinical CVB3 isolates; [18]): 5.86 | Number of sensitive CVB3 (clinical CVB3 isolates): 18* | Therapeutic effect (body weight, general condition, virus titre in heart and pancreas, histopathology) (CVB3 31-1-93 [8]): effective | Tolerance on subacute administration [10]: extremely good tolerance

Cc1cc(CCCCCCCOc2ccc(C3=NCCO3)cc2)on1 [disoxaril]
Metabolisation and excretion [11]: fast metabolisation and excretion | Bioavailability [6]: low bioavailability
